Test results from US7601746B2 (Shionogi & Co., Ltd., priority 2003, dated 2009).

Biological target: T1, human TPO receptor (hTPOR) (Homo sapiens, UniProt P40238)
T1 construct: expressed in transfected cells; host or cells: BaF-B03 (murine IL-3 dependent cell line)
T1 sequence (P40238 26-635): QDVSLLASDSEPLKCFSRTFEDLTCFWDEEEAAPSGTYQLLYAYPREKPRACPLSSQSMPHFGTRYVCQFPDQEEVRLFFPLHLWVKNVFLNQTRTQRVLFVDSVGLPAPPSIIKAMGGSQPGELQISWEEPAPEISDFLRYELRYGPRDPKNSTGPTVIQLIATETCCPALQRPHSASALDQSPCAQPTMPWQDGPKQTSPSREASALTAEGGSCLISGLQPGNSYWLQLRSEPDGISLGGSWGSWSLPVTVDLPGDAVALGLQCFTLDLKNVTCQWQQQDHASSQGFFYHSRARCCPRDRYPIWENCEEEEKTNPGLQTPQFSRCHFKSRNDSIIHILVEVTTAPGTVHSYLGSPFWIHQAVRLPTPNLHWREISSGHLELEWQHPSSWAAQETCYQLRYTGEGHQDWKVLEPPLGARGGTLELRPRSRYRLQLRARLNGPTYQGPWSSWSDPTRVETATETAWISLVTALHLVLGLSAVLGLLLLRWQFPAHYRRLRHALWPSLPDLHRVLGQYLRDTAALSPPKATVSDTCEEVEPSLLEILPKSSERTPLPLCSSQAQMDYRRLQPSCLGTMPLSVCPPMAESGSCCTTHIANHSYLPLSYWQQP
Experiment: Thrombopoietic activity: proliferation of TPO dependent BaF/hTPOR cells (WST-1, absorbance at 450 nm)
Type: cell-based
Settings: 20 h + 4 h WST-1, ED50 = half concentration of the concentration showing the maximum thrombopoietic activity
In short: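 Proliferation read-out: WST-1 absorbance at 450 nm after 20 h compound exposure plus 4 h reagent, using IL-3-deprived BaF/hTPOR cells (5×10^4 per well) dependent on human TPO receptor signalling. ED50 defined as half the concentration producing maximal activity.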

CO/C(=C\c1c(F)cc(C(=O)Nc2nc(-c3cccc(CCCOCC(C)(C)C)c3F)c(OC)s2)cc1F)C(=O)O [Compound B1904, (Z)-3-[4-(4-{3-[3-(2,2-dimethylpropyloxy)propyl]-2-fluorophenyl}-5-methyloxythiazol-2-ylcarbamoyl)-2,6-difluorophenyl]-2-methyloxyacrylic acid]
EC50 (Table 2): 24.6 nM

CO/C(=C\c1c(Cl)cc(C(=O)Nc2nc(-c3cccc(CCCOCC(C)(C)C)c3F)c(OC)s2)cc1Cl)C(=O)O [Compound B1905]
EC50 (Table 2): 26.7 nM

CO/C(=C\c1c(F)cc(C(=O)Nc2nc(-c3cccc(C(OC)C(C)(C)C)c3F)c(OC)s2)cc1F)C(=O)O (stereo not drawn) [Compound B1908, (Z)-3-(2,6-difluoro-4-{4-[2-fluoro-3-(1-methyloxy-2,2-dimethylpropyl)phenyl]-5-methyloxythiazol-2-ylcarbamoyl}phenyl)-2-methyloxyacrylic acid]
EC50 (Table 2): 26.3 nM

CO/C(=C\c1c(Cl)cc(C(=O)Nc2nc(-c3cccc(C(OC)C(C)(C)C)c3F)c(OC)s2)cc1Cl)C(=O)O (stereo not drawn) [Compound B1909, (Z)-3-(2,6-dichloro-4-{4-[2-fluoro-3-(1-methyloxy-2,2-dimethylpropyl)phenyl]-5-methyloxythiazol-2-ylcarbamoyl}phenyl)-2-methyloxyacrylic acid]
EC50 (Table 2): 25.9 nM

COc1c(OCCC2CCCCC2)cccc1-c1csc(NC(=O)c2cc(F)c(/C=C(\C)C(=O)O)c(F)c2)n1 [Compound B1916]
EC50 (Table 1): 12.9 nM

COc1c(OCCC2CCCCC2)cccc1-c1csc(NC(=O)c2cc(Cl)c(/C=C(\C)C(=O)O)c(Cl)c2)n1 [Compound B1918]
EC50 (Table 2): 21 nM

CO/C(=C\c1c(Cl)cc(C(=O)Nc2nc(-c3cccc(OCCC4CCCCC4)c3OC)cs2)cc1Cl)C(=O)O [Compound B1919]
EC50 (Table 2): 27.9 nM

COc1c(CCOCCCC(C)C)cccc1-c1csc(NC(=O)c2cc(F)c(/C=C(\C)C(=O)O)c(F)c2)n1 [Compound B1920, (E)-3-[2,6-difluoro-4-(4-{2-methyloxy-3-[2-(4-methylpentyloxy)ethyl]phenyl}thiazol-2-ylcarbamoyl)phenyl)-2-methylacrylic acid]
EC50 (Table 1): 14.5 nM

COc1c(CCOCCCC(C)C)cccc1-c1csc(NC(=O)c2cc(Cl)c(/C=C(\C)C(=O)O)c(Cl)c2)n1 [Compound B1922, (E)-3-[2,6-dichloro-4-(4-{2-methyloxy-3-[2-(4-methylpentyloxy)ethyl]phenyl}thiazol-2-ylcarbamoyl)phenyl)-2-methylacrylic acid]
EC50 (Table 1): 13.6 nM

CO/C(=C\c1c(Cl)cc(C(=O)Nc2nc(-c3cccc(CCOCCCC(C)C)c3OC)cs2)cc1Cl)C(=O)O [Compound B1923, (Z)-3-[2,6-dichloro-4-(4-{2-methyloxy-3-[2-(4-methylpentyloxy)ethyl]phenyl}thiazol-2-ylcarbamoyl)phenyl)-2-methyloxyacrylic acid]
EC50 (Table 2): 20.2 nM

CCCCCOCCc1cccc(-c2csc(NC(=O)c3cc(F)c(/C=C(\C)C(=O)O)c(F)c3)n2)c1OC [Compound B1924, (E)-3-(2,6-difluoro-4-{4-[2-methyloxy-3-(2-pentyloxyethyl)phenyl]thiazol-2-ylcarbamoyl)phenyl)-2-methylacrylic acid]
EC50 (Table 2): 20.6 nM

CCCCCOCCc1cccc(-c2csc(NC(=O)c3cc(Cl)c(/C=C(\C)C(=O)O)c(Cl)c3)n2)c1OC [Compound B1925, (E)-3-(2,6-dichloro-4-{4-[2-methyloxy-3-(2-pentyloxyethyl)phenyl]thiazol-2-ylcarbamoyl)phenyl)-2-methylacrylic acid]
EC50 (Table 1): 18.4 nM

CCCCCCOCCc1cccc(-c2csc(NC(=O)c3cc(F)c(/C=C(\C)C(=O)O)c(F)c3)n2)c1OC [Compound B1926, (E)-3-(2,6-difluoro-4-{4-[3-(2-hexyloxyethyl)-2-methyloxyphenyl]thiazol-2-ylcarbamoyl)phenyl)-2-methylacrylic acid]
EC50 (Table 1): 15.6 nM

CCCCCCOCCc1cccc(-c2csc(NC(=O)c3cc(F)c(/C=C(\OC)C(=O)O)c(F)c3)n2)c1OC [Compound B1927, (Z)-3-(2,6-difluoro-4-{4-[3-(2-hexyloxyethyl)-2-methyloxyphenyl]thiazol-2-ylcarbamoyl)phenyl)-2-methyloxyacrylic acid]
EC50 (Table 1): 19.4 nM

CCCCCCOCCc1cccc(-c2csc(NC(=O)c3cc(Cl)c(/C=C(\C)C(=O)O)c(Cl)c3)n2)c1OC [Compound B1928, (E)-3-(2,6-dichloro-4-{4-[3-(2-hexyloxyethyl)-2-methyloxyphenyl]thiazol-2-ylcarbamoyl)phenyl)-2-methylacrylic acid]
EC50 (Table 1): 12.6 nM

CCCCCCOCCc1cccc(-c2csc(NC(=O)c3cc(Cl)c(/C=C(\OC)C(=O)O)c(Cl)c3)n2)c1OC [Compound B1929, (Z)-3-(2,6-dichloro-4-{4-[3-(2-hexyloxyethyl)-2-methyloxyphenyl]thiazol-2-ylcarbamoyl)phenyl)-2-methyloxyacrylic acid]
EC50 (Table 2): 25.8 nM

COc1c(COCC(C)(C)C)cccc1-c1csc(NC(=O)c2cc(F)c(/C=C(\C)C(=O)O)c(F)c2)n1 [Compound B1933, (E)-3-(4-{4-[3-(2,2-dimethylpropyloxymethyl)-2-methyloxyphenyl]thiazol-2-ylcarbamoyl}-2,6-difluorophenyl)-2-methylacrylic acid]
EC50 (Table 1): 7.88 nM

COc1c(COCCC(C)(C)C)cccc1-c1csc(NC(=O)c2cc(F)c(/C=C(\C)C(=O)O)c(F)c2)n1 [Compound B1934, (E)-3-(4-{4-[3-(3,3-dimethylbutyloxymethyl)-2-methyloxyphenyl]thiazol-2-ylcarbamoyl}-2,6-difluorophenyl)-2-methylacrylic acid]
EC50 (Table 1): 13 nM

CO/C(=C\c1c(F)cc(C(=O)Nc2nc(-c3cccc(COCCC(C)(C)C)c3OC)cs2)cc1F)C(=O)O [Compound B1935, (Z)-3-(4-{4-[3-(3,3-dimethylbutyloxymethyl)-2-methyloxyphenyl]thiazol-2-ylcarbamoyl}-2,6-difluorophenyl)-2-methyloxyacrylic acid]
EC50 (Table 2): 25.4 nM

CO/C(=C\c1c(Cl)cc(C(=O)Nc2nc(-c3cccc(COCCC(C)(C)C)c3OC)cs2)cc1Cl)C(=O)O [Compound B1937, (Z)-3-(2,6-dichloro-4-{4-[3-(3,3-dimethylbutyloxymethyl)-2-methyloxyphenyl]thiazol-2-ylcarbamoyl}phenyl)-2-methyloxyacrylic acid]
EC50 (Table 2): 23.1 nM

COc1c(COCCCC(C)C)cccc1-c1csc(NC(=O)c2cc(F)c(/C=C(\C)C(=O)O)c(F)c2)n1 [Compound B1938]
EC50 (Table 1): 12.7 nM

COc1c(COCCCC(C)C)cccc1-c1csc(NC(=O)c2cc(Cl)c(/C=C(\C)C(=O)O)c(Cl)c2)n1 [Compound B1940]
EC50 (Table 1): 18.8 nM

CO/C(=C\c1c(Cl)cc(C(=O)Nc2nc(-c3cccc(COCCCC(C)C)c3OC)cs2)cc1Cl)C(=O)O [Compound B1941]
EC50 (Table 2): 24.1 nM

COc1c(CCCOCC2CC2)cccc1-c1csc(NC(=O)c2cc(Cl)c(/C=C(\C)C(=O)O)c(Cl)c2)n1 [Compound B1945, (E)-3-(2,6-dichloro-4-{4-[3-(3-cyclopropylmethyloxypropyl)-2-methyloxyphenyl]thiazol-2-ylcarbamoyl}phenyl)-2-methylacrylic acid]
EC50 (Table 1): 19.3 nM

COc1c(CCCOCC2CCCC2)cccc1-c1csc(NC(=O)c2cc(F)c(/C=C(\C)C(=O)O)c(F)c2)n1 [Compound B1948, (E)-3-(4-{4-[3-(3-cyclopentylmethyloxypropyl)-2-methyloxyphenyl]thiazol-2-ylcarbamoyl}-2,6-difluorophenyl)-2-methylacrylic acid]
EC50 (Table 1): 10.9 nM

COc1c(CCCOCC2CCCC2)cccc1-c1csc(NC(=O)c2cc(Cl)c(/C=C(\C)C(=O)O)c(Cl)c2)n1 [Compound B1949, (E)-3-(2,6-dichloro-4-{4-[3-(3-cyclopentylmethyloxypropyl)-2-methyloxyphenyl]thiazol-2-ylcarbamoyl}phenyl)-2-methylacrylic acid]
EC50 (Table 1): 13.2 nM

CO/C(=C\c1c(Cl)cc(C(=O)Nc2nc(-c3cccc(CCCOCC4CCCC4)c3OC)cs2)cc1Cl)C(=O)O [Compound B1951, (Z)-3-(2,6-dichloro-4-{4-[3-(3-cyclopentylmethyloxypropyl)-2-methyloxyphenyl]thiazol-2-ylcarbamoyl}phenyl)-2-methyloxyacrylic acid]
EC50 (Table 2): 22.3 nM

CCCCCCCOCCc1cccc(-c2csc(NC(=O)c3cc(F)c(/C=C(\C)C(=O)O)c(F)c3)n2)c1OC [Compound B1952, (E)-3-(2,6-difluoro-4-{4-[3-(2-heptyloxyethyl)-2-methyloxyphenyl]thiazol-2-ylcarbamoyl}phenyl)-2-methylacrylic acid]
EC50 (Table 1): 10.1 nM

CCCCCCCOCCc1cccc(-c2csc(NC(=O)c3cc(F)c(/C=C(\OC)C(=O)O)c(F)c3)n2)c1OC [Compound B1953, (Z)-3-(2,6-difluoro-4-{4-[3-(2-heptyloxyethyl)-2-methyloxyphenyl]thiazol-2-ylcarbamoyl}phenyl)-2-methyloxyacrylic acid]
EC50 (Table 1): 10.1 nM

COc1c(CCOCCC(C)C)cccc1-c1csc(NC(=O)c2cc(F)c(/C=C(\C)C(=O)O)c(F)c2)n1 [Compound B1954]
EC50 (Table 1): 12.9 nM
